Data from publication PMC12657586, “Therapeutic effect of an MRGPRX2/MRGPRB2 antagonist on LL-37-induced rosacea-like inflammation in mice” (Inflammation Research, 2025).

Molecular target: T1, MRGPRX2 (Mas-related G protein-coupled receptor X2) (Homo sapiens, UniProt Q96LB1)
T1 sequence (Q96LB1 1-330): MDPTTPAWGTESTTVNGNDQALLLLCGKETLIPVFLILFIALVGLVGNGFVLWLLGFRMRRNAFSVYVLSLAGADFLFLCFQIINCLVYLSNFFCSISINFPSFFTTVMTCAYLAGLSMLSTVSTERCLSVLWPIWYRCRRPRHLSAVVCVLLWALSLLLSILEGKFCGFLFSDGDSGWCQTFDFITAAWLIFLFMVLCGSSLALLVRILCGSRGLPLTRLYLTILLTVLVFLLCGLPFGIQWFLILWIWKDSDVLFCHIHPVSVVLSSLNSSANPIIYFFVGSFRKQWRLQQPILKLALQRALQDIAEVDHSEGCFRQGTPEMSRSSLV
Assay: Fluo-4 calcium flux assay in MRGPRX2-transfected HEK-293 cells, antagonism of LL-37
Format: cell-based

Q: How did the IC50 turn out when `COC(=O)c1cc2cc(NC(N)=O)ccc2cc1-c1cc2c3c(c(O)ccc3c1)C(C)C(C=O)=C2` (stereo not shown) [GE1111] was run?
A: The IC50 was 12.3 µM.
